These results are taken from ChEMBL document CHEMBL1201862, “PubChem BioAssay data set” (2004).

The source made the active and inactive calls.

One assay addresses Paired box protein Pax-8 (Homo sapiens, UniProt Q06710). In words: PAX8 transcriptional activity inhibition in RMG-I – RMG-I cells, luciferase, cherry-pick, dose response (AID 687027).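 Also: luciferase reporter driven by Pax8 target thyroperoxidase promoter measured by SteadyGlo luminescence.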 It counts as functional, cell-based.
The next assay concerns the target T1, Hexokinase HKDC1 (Homo sapiens, UniProt Q2TB90).
T1 sequence (Q2TB90 whole entry): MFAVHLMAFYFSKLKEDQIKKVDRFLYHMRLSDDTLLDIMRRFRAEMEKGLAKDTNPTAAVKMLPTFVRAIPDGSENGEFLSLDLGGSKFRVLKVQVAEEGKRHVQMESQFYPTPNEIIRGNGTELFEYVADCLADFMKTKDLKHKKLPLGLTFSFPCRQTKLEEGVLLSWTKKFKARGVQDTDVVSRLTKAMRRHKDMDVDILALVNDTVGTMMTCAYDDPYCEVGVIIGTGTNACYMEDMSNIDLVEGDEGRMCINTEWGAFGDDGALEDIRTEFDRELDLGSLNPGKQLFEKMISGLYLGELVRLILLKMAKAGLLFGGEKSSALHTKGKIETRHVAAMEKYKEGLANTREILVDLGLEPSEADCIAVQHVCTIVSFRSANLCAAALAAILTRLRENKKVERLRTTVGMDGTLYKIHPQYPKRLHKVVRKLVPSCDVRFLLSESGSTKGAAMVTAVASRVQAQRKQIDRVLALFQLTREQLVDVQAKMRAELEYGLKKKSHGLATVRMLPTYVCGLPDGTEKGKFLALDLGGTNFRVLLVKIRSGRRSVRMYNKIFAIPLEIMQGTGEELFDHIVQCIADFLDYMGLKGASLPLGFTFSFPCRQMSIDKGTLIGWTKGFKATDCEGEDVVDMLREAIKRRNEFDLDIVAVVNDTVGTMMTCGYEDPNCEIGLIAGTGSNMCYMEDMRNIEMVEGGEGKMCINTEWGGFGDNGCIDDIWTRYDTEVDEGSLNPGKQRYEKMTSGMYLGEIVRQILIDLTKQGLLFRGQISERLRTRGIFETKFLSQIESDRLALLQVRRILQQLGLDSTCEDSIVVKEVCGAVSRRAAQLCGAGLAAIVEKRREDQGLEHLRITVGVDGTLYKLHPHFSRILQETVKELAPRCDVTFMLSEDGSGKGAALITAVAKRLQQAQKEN
In words: activation of HKDC1 glucose phosphorylation – biochemical, W721R variant, dose response (AID 504730). It counts as functional.

A short description of assay [1]: Trypanosoma cruzi growth suppression in host cells – NIH3T3 host cells, beta-gal luminescence, confirmation (AID 2044).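 Also: intracellular parasites grown in NIH/3T3 mouse fibroblasts as host cells; luminescent beta-galactosidase reporter signal from transgenic T. cruzi replicating inside host cells; inhibitors lower the luminescence signal.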 Format: functional, cell-based.
In the next assay the target is Hexokinase-1 (Homo sapiens, UniProt P19367). In words: HK1 enzyme activation by HKDC1 hits – biochemical, selectivity assay for HKDC1 activator project, dose response (AID 504762). It counts as functional.
Sequence of Hexokinase-1 (P19367 whole entry): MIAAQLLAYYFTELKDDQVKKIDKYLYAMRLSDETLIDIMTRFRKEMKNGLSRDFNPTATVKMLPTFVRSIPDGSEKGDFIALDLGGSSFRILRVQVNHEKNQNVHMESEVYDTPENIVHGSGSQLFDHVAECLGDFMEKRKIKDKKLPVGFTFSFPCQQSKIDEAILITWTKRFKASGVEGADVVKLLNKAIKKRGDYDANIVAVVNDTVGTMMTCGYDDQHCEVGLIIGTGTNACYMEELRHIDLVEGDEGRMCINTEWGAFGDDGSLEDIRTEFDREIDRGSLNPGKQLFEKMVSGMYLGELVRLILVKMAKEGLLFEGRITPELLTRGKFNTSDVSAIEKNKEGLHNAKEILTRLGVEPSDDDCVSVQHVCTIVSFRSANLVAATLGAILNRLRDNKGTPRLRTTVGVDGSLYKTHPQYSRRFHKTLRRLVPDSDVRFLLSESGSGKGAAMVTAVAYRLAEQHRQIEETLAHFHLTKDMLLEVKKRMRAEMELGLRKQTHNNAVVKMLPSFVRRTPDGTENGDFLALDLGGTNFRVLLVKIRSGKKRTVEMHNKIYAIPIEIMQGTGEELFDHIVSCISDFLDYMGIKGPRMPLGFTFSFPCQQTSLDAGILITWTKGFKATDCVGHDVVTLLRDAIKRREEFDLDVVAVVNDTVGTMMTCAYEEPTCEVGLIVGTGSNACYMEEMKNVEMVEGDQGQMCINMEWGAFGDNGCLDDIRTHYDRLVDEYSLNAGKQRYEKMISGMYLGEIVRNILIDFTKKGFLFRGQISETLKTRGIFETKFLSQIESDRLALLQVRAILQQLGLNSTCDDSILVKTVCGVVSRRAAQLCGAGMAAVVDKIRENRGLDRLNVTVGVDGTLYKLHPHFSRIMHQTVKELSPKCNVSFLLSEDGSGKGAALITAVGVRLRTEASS
Assay [2] is described as follows: NIH3T3 cell viability loss – ATP luminescence, mouse fibroblasts, counter-screen, dose response (AID 2010).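 Also: cells exposed to compound for about 90 hours before reading.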 Format: functional, cell-based.
The subject of a further assay is INS1. The assay is described as follows: INS-1E survival protection against cytokine death – cell-based, luminescence, retest, dose response (AID 449756).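 Also: cell death triggered by IL-1 beta plus TNF-alpha plus IFN-gamma mixture; protective hits raise ATP signal compared with cytokine alone wells.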 Format: functional. The following applies: Rattus norvegicus.
In assay [3] the target is Glyceraldehyde-3-phosphate dehydrogenase (Homo sapiens, UniProt P04406).
Sequence of Glyceraldehyde-3-phosphate dehydrogenase (P04406 whole entry): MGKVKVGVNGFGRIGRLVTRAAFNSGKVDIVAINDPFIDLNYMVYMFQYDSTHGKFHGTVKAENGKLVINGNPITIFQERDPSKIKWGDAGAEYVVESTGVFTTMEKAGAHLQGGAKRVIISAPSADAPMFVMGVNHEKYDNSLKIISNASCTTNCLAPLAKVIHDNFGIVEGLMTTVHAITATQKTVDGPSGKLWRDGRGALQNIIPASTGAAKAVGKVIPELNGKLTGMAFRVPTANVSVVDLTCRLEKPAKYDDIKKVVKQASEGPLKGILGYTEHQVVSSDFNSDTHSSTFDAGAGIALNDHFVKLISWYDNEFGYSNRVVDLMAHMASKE
Assay [4] deals with T2, Alkaline phosphatase, tissue-nonspecific isozyme (Homo sapiens, UniProt P05186).
T2 sequence (P05186 whole entry): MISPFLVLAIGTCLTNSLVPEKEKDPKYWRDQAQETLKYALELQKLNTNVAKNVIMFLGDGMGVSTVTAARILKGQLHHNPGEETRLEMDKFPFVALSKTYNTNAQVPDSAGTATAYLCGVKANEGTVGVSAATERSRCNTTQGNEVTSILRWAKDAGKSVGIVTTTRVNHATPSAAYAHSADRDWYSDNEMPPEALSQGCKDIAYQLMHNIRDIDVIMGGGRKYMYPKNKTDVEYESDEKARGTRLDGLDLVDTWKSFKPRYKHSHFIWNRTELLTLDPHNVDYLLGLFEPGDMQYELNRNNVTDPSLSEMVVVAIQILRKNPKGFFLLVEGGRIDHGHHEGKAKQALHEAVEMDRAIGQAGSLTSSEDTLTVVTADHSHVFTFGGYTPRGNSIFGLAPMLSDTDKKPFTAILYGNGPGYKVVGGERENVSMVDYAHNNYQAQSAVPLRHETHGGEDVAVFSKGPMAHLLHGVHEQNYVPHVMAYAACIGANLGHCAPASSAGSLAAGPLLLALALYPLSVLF
In words: potency against alkaline phosphatase TNAP – biochemical, luminescent, dose response, SAR follow-up (AID 1056).

The target of another assay is X-box-binding protein 1 (Homo sapiens, UniProt P17861). Format: functional, Cricetulus griseus.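 Also: confirmatory dose-response counter-screen serving a CHOP assay.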
Sequence of X-box-binding protein 1 (P17861 whole entry): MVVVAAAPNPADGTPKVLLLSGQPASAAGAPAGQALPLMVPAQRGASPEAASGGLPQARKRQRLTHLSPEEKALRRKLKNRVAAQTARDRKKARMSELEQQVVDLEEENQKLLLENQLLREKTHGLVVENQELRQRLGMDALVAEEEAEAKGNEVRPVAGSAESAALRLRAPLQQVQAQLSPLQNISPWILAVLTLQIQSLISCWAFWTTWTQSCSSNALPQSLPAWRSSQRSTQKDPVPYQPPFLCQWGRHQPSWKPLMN
Assay [5] is described as follows: alpha-synuclein stem-loop luciferase translation blockers – H4 neuroglioma cells, luminescence, confirmation (AID 1988). Format: functional, cell-based.
Assay [6] in a line: Luminescence Cell-Based Dose Response HTS to Identify Inhibitors of 5'UTR Stem-Loop Driven Prion Protein mRNA Translation in H4 Neuroglioblastoma Cells. [Related pubchem assays: 1827 (Project Summary), 1813 (Primary HTS)]. Format: functional.
Assay [7] in a line: HEK-293T cell viability reduction – luminescence, B-cell screen hits, cytotoxicity control for BCR NF-kB inhibitor project, dose response (AID 489021).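 Also: HEK-293T cells carrying an NF-kB luciferase reporter; cells exposed to compound for about 14 hours before viability readout.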 It counts as functional, cell-based.
Assay [8] can be described thus: general cell-killing toxicity readout – plate reader, dry powder samples, cytotoxicity control for PAX8 inhibitor project, dose response (AID 743021). It counts as functional, cell-based.
The target of assay [9] is T3, SUMO-activating enzyme (Homo sapiens, UniProt Q9UBT2). In words: blockers of SAE1/SAE2–UBC9 SUMO transfer – biochemical, HTRF, uHTS, primary screen (AID 2006). Format: protein-complex assay.
T3 sequence (Q9UBE0 whole entry): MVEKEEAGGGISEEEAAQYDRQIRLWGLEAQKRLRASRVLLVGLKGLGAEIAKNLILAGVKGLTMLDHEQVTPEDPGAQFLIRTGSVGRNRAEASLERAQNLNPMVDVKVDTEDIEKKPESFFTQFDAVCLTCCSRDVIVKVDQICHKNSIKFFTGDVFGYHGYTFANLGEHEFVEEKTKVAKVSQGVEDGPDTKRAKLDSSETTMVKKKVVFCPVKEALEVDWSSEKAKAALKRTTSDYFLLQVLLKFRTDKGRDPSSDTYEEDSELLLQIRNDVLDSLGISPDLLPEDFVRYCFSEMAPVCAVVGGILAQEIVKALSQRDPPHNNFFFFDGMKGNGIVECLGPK
T3 sequence (Q9UBT2 whole entry): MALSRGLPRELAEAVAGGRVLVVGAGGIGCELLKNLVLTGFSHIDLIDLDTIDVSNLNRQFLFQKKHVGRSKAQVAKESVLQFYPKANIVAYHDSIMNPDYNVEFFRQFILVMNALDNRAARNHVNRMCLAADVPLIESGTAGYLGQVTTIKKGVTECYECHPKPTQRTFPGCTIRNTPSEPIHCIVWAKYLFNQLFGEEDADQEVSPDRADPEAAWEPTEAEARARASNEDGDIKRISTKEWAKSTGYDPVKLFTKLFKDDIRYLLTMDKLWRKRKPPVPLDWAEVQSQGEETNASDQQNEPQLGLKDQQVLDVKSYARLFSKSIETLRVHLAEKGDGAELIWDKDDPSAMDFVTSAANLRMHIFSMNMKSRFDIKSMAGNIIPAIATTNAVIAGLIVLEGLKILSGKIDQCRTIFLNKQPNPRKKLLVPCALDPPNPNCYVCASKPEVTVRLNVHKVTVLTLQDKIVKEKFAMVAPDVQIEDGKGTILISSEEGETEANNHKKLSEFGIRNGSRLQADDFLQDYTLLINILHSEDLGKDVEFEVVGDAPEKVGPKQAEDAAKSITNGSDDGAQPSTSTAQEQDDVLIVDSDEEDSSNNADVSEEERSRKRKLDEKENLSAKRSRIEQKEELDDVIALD
Assay [10] concerns the target T3, SUMO-activating enzyme. In words: blockers of UBC9-mediated SUMO conjugation – biochemical, AlphaScreen, SUMOylation inhibitor project, confirmation (AID 2018). It counts as functional. A general note: Bead proximity is the source of the signal in Alpha formats.
A further assay addresses T4, Streptokinase A (Streptococcus pyogenes serotype M1, UniProt P10520).
T4 sequence (P10520 whole entry): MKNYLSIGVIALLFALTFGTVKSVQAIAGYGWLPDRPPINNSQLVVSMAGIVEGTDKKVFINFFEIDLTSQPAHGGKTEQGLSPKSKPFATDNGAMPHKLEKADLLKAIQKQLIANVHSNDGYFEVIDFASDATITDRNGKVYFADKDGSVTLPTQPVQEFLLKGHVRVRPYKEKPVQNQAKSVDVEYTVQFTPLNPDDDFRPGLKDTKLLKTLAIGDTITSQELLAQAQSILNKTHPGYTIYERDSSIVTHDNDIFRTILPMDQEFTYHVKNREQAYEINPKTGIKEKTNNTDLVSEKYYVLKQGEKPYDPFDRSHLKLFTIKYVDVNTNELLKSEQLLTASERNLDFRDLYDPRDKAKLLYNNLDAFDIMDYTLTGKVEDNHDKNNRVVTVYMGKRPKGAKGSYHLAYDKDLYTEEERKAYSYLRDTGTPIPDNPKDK
In words: viability-normalized secreted streptokinase activity reduction – plasminogen activation absorbance, OD405, dose response (AID 1914).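 Also: secreted streptokinase activity via plasminogen activation per viability signal from cell pellet.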 It counts as functional, Streptococcus pyogenes M1 GAS.

Assay [11] can be described thus: fluconazole-exposed Candida albicans growth modulators – fluorescence, retest, confirmation (AID 2467). It counts as functional, cell-based.
Another assay has as its system T-cell. The assay is described as follows: loss of vesicle association with mouse CD8+ T cells – mouse 2C CD8+ T cells, flow cytometry, dose response (AID 485284). Format: functional. For orientation: A flow cytometer gives signals particle by particle.
Assay [12] addresses Heat shock protein HSP 90-alpha (Homo sapiens, UniProt P07900). Format: functional, organism-based.
Another assay deals with Streptococcus. The assay is described as follows: GAS UMAA2166 growth inhibition – luminescence, BacTiterGlo, counter-screen for streptokinase expression inhibitor project, dose response (AID 1915).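 Also: potency for reduction of bacterial viability or growth.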 It counts as functional, organism-based. On the technique in general: A counterscreen serves to expose hits that act by an unwanted route or on another target.
Assay [13] relates to Streptococcus sp. 'group A'. In words: Streptococcus pyogenes SK(-)GAS viability under kanamycin – luminescence, BacTiterGlo, confirmation, counter-screen for streptokinase expression inhibitor project, dose response (AID 1900). It counts as functional, organism-based.
The nature of assay [14]: NIH-3T3 fibroblast cytotoxicity, dose response, cytotoxicity control, cell-based, fluorescence, Alamar Blue, secondary assay (AID 2327).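 Also: NIH-3T3 mouse fibroblasts cultured with fluconazole at 8 µg/mL.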 Format: functional.
The target of assay [15] is Dual specificity tyrosine-phosphorylation-regulated kinase 1A (Rattus norvegicus, UniProt Q63470). Format: biochemical, Homo sapiens.

Sequence of Paired box protein Pax-8 (Q06710 whole entry): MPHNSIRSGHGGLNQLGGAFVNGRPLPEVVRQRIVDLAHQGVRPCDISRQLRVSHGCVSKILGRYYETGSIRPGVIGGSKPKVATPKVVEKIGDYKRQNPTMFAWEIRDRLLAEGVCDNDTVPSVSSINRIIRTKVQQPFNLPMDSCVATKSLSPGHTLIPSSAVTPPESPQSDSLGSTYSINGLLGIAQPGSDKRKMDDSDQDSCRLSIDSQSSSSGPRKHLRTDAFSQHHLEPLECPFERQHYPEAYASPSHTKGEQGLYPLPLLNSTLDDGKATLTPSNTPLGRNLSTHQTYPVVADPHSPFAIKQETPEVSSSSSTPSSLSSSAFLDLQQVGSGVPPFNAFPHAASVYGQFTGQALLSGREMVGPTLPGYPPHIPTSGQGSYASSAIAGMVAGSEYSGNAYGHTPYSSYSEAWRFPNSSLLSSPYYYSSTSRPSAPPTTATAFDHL

As usually defined, the AC50 is the concentration at which the activity in the assay is half-maximal. Broadly, the EC50 is the concentration needed to bring the measured effect to its halfway point. Regarding `COc1ccc(C2=NN=C(Nc3cc(S(=O)(=O)N(C)C)ccc3C)SC2)c(OC)c1`, the concentration at half-maximal activity (AC50) on Paired box protein Pax-8 was 6.77 µM (active); in the assay on INS1 it was 5.48 µM (active). Besides, the EC50 is 18.5 µM (active) on Hexokinase HKDC1, 3.57 µM (active) in assay [1], 17.4 µM (active) on Hexokinase-1 and 5.85 µM (active) in [2].

The term IC50 denotes the concentration that inhibits the measured activity by half. As to `COc1ccc(Cc2nnc(N3C(=O)[C@H]4CCCC[C@H]4C3=O)[nH]2)cc1`, the half-maximal inhibitory concentration (IC50) in [3] is > 100 µM (not active); in assay [4] it was > 100 µM (inactive).

`CC1CCCC(NC(=O)COC(=O)/C=C/c2ccc3c(c2)OCO3)C1C` (stereo unspecified): at X-box-binding protein 1, the “Absolute IC50 (XBP1)” value turned out to be 10 µM.

For `COc1ccc(OCc2cccc(C(=O)Nc3cc(C)on3)c2)cc1`, the concentration for a half-maximal effect (EC50) was 9.85 µM (inconclusive) in assay [5] and > 60 µM (not active) in assay [6]. The half-maximal activity concentration (AC50) at Paired box protein Pax-8 is 4.14 µM (active); in [8] it was 43.9 µM (active). In assay [7], the IC50 was > 80 µM (inactive).

In the case of `Sc1nnc(-c2ccncc2)n1/N=C/c1cn(-c2ccccc2)nc1-c1ccc(Cl)cc1`, the values for the concentration for half-maximal inhibition (IC50) on SUMO-activating enzyme [9] and on SUMO-activating enzyme [10] were 28.8 µM (active) and 3.28 µM (active), respectively.

For `CC(=C/c1ccco1)/C=N/NC(=O)CSc1nnc(SCc2ccc(C)cc2)s1`, the IC50 in assay [7] is > 80 µM (inactive).

As for `C=CC(C)(C)c1c(O)c(CC=C(C)C)c(O)c2c(=O)c3ccc(O)c(O)c3oc12` [GERONTOXANTHONE I], the EC50 on Streptokinase A was > 150 µM (not active); in assay [11], > 38 µM (not active); in the assay with T-cell it was 2.86 µM (active); with Streptococcus, 7.75 µM (active); in [13], 2.29 µM (active); in [14] it was > 160 µM (inconclusive). For the same compound, the half-maximal activity concentration (AC50) was 8.03 µM (active) in [12], 3.34 µM (active) in the assay on INS1 and 8.27 µM (active) in [15].
